According to ChEMBL document CHEMBL3885861, “Open TG-GATES”:
Structures can show the parent of a compound that is named as a salt.

Organism: Rattus norvegicus
Assay: Open TG-GATES - Regimen: Single
Format: toxicity, organism-based, Sprague-Dawley
Design: regimen Single, gender Male, age 6 weeks
Details: in vivo, ip, 240 mg/kg, route intraperitoneal injection, dose level Middle; for APTT / Bas / Eos / Fbg / Hb / Ht / Lym / MCH / MCHC / MCV / Mono / Neu / PT / Plat / RBC / Ret / WBC: tissue Blood; for KIDNEY_L / KIDNEY_R / KIDNEY_TOTAL: tissue Kidney; for LIVER: tissue Liver; for A/G / ALP / ALT / AST / BUN / CRE / Ca / Cl / DBIL / GLC / IP / K / LDH / Na / PL / RALB / TBIL / TC / TG / TP / gamma-GTP: tissue Plasma

Work on CCOC(=O)/C=C\C(=O)OCC [DIETHYL MALEATE] yielded a TERMINAL_BW (3 h) of 196.7 g, an APTT (3 h) of 16 s and a Bas (3 h) of 0%. The Eos (3 h) was 1%, the Fbg (3 h) was 206.2 mg/dL and the Hb (3 h) was 13.4 g/dL. It also gave a Ht (3 h) of 40.3%, a Lym (3 h) of 72% and an MCH (3 h) of 21.3 pg. The MCHC (3 h) was 33.3%, the MCV (3 h) was 63.8 fL and the Mono (3 h) was 5.6%. It also gave a Neu (3 h) of 21.6%, a PT (3 h) of 12.4 s and a Plat (3 h) of 124.8 x10_4/uL. For the same molecule, the RBC (3 h) was 631.8 x10_4/ul, the Ret (3 h) was 9.7% and the WBC (3 h) was 90.3 x10_2/uL. The KIDNEY_L (3 h) was 0.9 g, the KIDNEY_R (3 h) was 0.9 g and the KIDNEY_TOTAL (3 h) was 1.8 g. The LIVER (3 h) was 8.5 g, the A/G (3 h) was 2.1 and the ALP (3 h) was 700.6 IU/L. It also gave an ALT (3 h) of 35.8 IU/L, an AST (3 h) of 80.6 IU/L and a BUN (3 h) of 17 mg/dL. The CRE (3 h) was 0.5 mg/dL, the Ca (3 h) was 10.9 mg/dL and the Cl (3 h) was 105.4 meq/L. The DBIL (3 h) was 0.02 mg/dL, the GLC (3 h) was 191.8 mg/dL and the IP (3 h) was 10.9 mg/dL. For the same molecule, the K (3 h) was 5.2 meq/L, the LDH (3 h) was 147 IU/L and the Na (3 h) was 138.4 meq/L. For the same molecule, the PL (3 h) was 126 mg/dL, the RALB (3 h) was 3.6 g/dL and the TBIL (3 h) was 0.4 mg/dL. It also gave a TC (3 h) of 71.8 mg/dL, a TG (3 h) of 30.4 mg/dL and a TP (3 h) of 5.3 g/dL. The gamma-GTP (3 h) was 1.2 IU/L, the TERMINAL_BW (6 h) was 199.7 g and the APTT (6 h) was 16.1 s. For the same molecule, the Bas (6 h) was 0%, the Eos (6 h) was 0.8% and the Fbg (6 h) was 210.2 mg/dL. The Hb (6 h) was 13 g/dL, the Ht (6 h) was 38.9% and the Lym (6 h) was 71.2%. It also gave an MCH (6 h) of 22 pg, an MCHC (6 h) of 33.3% and an MCV (6 h) of 66 fL. It also gave a Mono (6 h) of 6.8%, a Neu (6 h) of 21.4% and a PT (6 h) of 12.2 s. For the same molecule, the Plat (6 h) was 121.8 x10_4/uL, the RBC (6 h) was 589.4 x10_4/ul and the Ret (6 h) was 10.6%. For the same molecule, the WBC (6 h) was 107.7 x10_2/uL, the KIDNEY_L (6 h) was 0.9 g and the KIDNEY_R (6 h) was 0.9 g. The KIDNEY_TOTAL (6 h) was 1.9 g, the LIVER (6 h) was 8.6 g and the A/G (6 h) was 1.9. It also gave an ALP (6 h) of 729.6 IU/L, an ALT (6 h) of 35 IU/L and an AST (6 h) of 69.8 IU/L. The BUN (6 h) was 14.8 mg/dL, the CRE (6 h) was 0.5 mg/dL and the Ca (6 h) was 10.7 mg/dL. For the same molecule, the Cl (6 h) was 106.6 meq/L, the DBIL (6 h) was 0.004 mg/dL and the GLC (6 h) was 192.6 mg/dL. For the same molecule, the IP (6 h) was 9.8 mg/dL, the K (6 h) was 5 meq/L and the LDH (6 h) was 112.8 IU/L. It also gave a Na (6 h) of 139.2 meq/L, a PL (6 h) of 131 mg/dL and an RALB (6 h) of 3.5 g/dL. It also gave a TBIL (6 h) of 0.4 mg/dL, a TC (6 h) of 82.8 mg/dL and a TG (6 h) of 39.6 mg/dL. The TP (6 h) was 5.3 g/dL, the gamma-GTP (6 h) was 1.4 IU/L and the TERMINAL_BW (9 h) was 195.9 g. The APTT (9 h) was 17 s, the Bas (9 h) was 0% and the Eos (9 h) was 1%. For the same molecule, the Fbg (9 h) was 209 mg/dL, the Hb (9 h) was 13 g/dL and the Ht (9 h) was 38.5%. The Lym (9 h) was 74.8%, the MCH (9 h) was 21.8 pg and the MCHC (9 h) was 33.6%. It also gave an MCV (9 h) of 64.7 fL, a Mono (9 h) of 5.4% and a Neu (9 h) of 19%. The PT (9 h) was 12.2 s, the Plat (9 h) was 115.5 x10_4/uL and the RBC (9 h) was 595 x10_4/ul. The Ret (9 h) was 9.6%, the WBC (9 h) was 90.7 x10_2/uL and the KIDNEY_L (9 h) was 0.9 g. The KIDNEY_R (9 h) was 0.9 g, the KIDNEY_TOTAL (9 h) was 1.7 g and the LIVER (9 h) was 7.8 g. The A/G (9 h) was 2.2, the ALP (9 h) was 849.2 IU/L and the ALT (9 h) was 34.6 IU/L. For the same molecule, the AST (9 h) was 71.8 IU/L, the BUN (9 h) was 12.2 mg/dL and the CRE (9 h) was 0.4 mg/dL. It also gave a Ca (9 h) of 10.7 mg/dL, a Cl (9 h) of 108.2 meq/L and a DBIL (9 h) of 0.016 mg/dL. For the same molecule, the GLC (9 h) was 188.4 mg/dL, the IP (9 h) was 9.7 mg/dL and the K (9 h) was 4.7 meq/L. The LDH (9 h) was 77.6 IU/L, the Na (9 h) was 139.4 meq/L and the PL (9 h) was 120.4 mg/dL. The RALB (9 h) was 3.5 g/dL, the TBIL (9 h) was 0.4 mg/dL and the TC (9 h) was 67.6 mg/dL. The TG (9 h) was 33.4 mg/dL, the TP (9 h) was 5.2 g/dL and the gamma-GTP (9 h) was 1.2 IU/L. It also gave a TERMINAL_BW (24 h) of 210.6 g, an APTT (24 h) of 15.9 s and a Bas (24 h) of 0%. For the same molecule, the Eos (24 h) was 1%, the Fbg (24 h) was 218.4 mg/dL and the Hb (24 h) was 13.5 g/dL. It also gave a Ht (24 h) of 40%, a Lym (24 h) of 81.2% and an MCH (24 h) of 21.9 pg. It also gave an MCHC (24 h) of 33.6%, an MCV (24 h) of 65 fL and a Mono (24 h) of 4%. For the same molecule, the Neu (24 h) was 14%, the PT (24 h) was 11.5 s and the Plat (24 h) was 114.2 x10_4/uL. The RBC (24 h) was 615.6 x10_4/ul, the Ret (24 h) was 9.9% and the WBC (24 h) was 113 x10_2/uL. It also gave a KIDNEY_L (24 h) of 0.9 g, a KIDNEY_R (24 h) of 0.9 g and a KIDNEY_TOTAL (24 h) of 1.9 g. It also gave an LIVER (24 h) of 10.2 g, an A/G (24 h) of 2.3 and an ALP (24 h) of 871.4 IU/L. For the same molecule, the ALT (24 h) was 39.8 IU/L, the AST (24 h) was 68.2 IU/L and the BUN (24 h) was 17.6 mg/dL. The CRE (24 h) was 0.5 mg/dL, the Ca (24 h) was 10.8 mg/dL and the Cl (24 h) was 106.2 meq/L. The DBIL (24 h) was 0.02 mg/dL, the GLC (24 h) was 198 mg/dL and the IP (24 h) was 8.2 mg/dL. It also gave a K (24 h) of 5.2 meq/L, an LDH (24 h) of 125.2 IU/L and a Na (24 h) of 139 meq/L. For the same molecule, the PL (24 h) was 145.4 mg/dL, the RALB (24 h) was 3.8 g/dL and the TBIL (24 h) was 0.4 mg/dL. For the same molecule, the TC (24 h) was 78 mg/dL, the TG (24 h) was 99.2 mg/dL and the TP (24 h) was 5.5 g/dL. The gamma-GTP (24 h) was 1.8 IU/L.
